Source: patent US8178506B2, “Oligomeric compounds and compositions for use in modulation of small non-coding RNAs” (Regulus Therapeutics Inc., priority 2003, dated 2012)
In the oligonucleotide strings, read from the 5' end, every base follows the letter of its sugar. An asterisk marks phosphorothioate; unmarked linkages are phosphodiester. Other units and linkages are bracketed, terminal groups are in braces. A string of capitals states the bases alone. e = 2'-O-(2-methoxyethyl) (MOE); [5mC] = 5-methylcytosine; d = 2'-deoxy (DNA)

Key:
Assay type in all cases: cell-based, human
[1] = system: preadipocytes / differentiating adipocytes; experiment: Adipocyte differentiation assay, markers taken together; conditions: differentiating adipocytes; for 5 markers of adipocyte differentiation: % of UTC (Table 75)
Description: Oligomeric compounds of the invention are tested for their effects on preadipocyte differentiation. […] For the other adipocyte differentiation markers assayed, an oligomeric compound targeted to PPAR-γ, also known to inhibit adipocyte differentiation, may be used as a positive control.
Cells are transfected as described herein. […] Untreated control cells receive LIPOFECTIN™ only.
After the cells have reach confluence (approximately three days), they are exposed for an additional three days to differentiation medium (Zen-Bio, Inc., Research Triangle Park, N.C.) containing a PPAR-γ agonist, IBMX, dexamethasone, and insulin. Cells are then fed adipocyte medium (Zen-Bio, Inc.), which is replaced at 2 or 3 day intervals.
For assaying adipocyte differentiation, expression of the four hallmark genes, HSL, aP2, Glut4, and PPARγ, as well as triglyceride (TG) accumulation and leptin secretion were measured in adipocytes transfected with the uniform 2′-MOE phosphorothioate (PS) oligomeric compounds previously described. Cells are lysed on day nine post-transfection, in a guanadinium-containing buffer and total RNA is harvested. Real-time PCR is performed (Applied Biosystems, Prism 7700) on the total RNA using the following primer/probe sets for the adipocyte differentiation hallmark genes: (aP2): forward 5′-GGTGGTGGAATGCGTCATG-3′ (SEQ ID NO: 746), reverse 5′-[…]-3′ (SEQ ID NO: 747), probe 5′-FAM-[…]-TAMRA-3′ (SEQ ID NO: 748); (Glut4): forward 5′-GGCCTCCGCAGGTTCTG-3′ (SEQ ID NO: 749), reverse 5′-[…]-3′ (SEQ ID NO: 750), probe 5′-FAM-[…]-TAMRA-3′ (SEQ ID NO: 751); (HSL): forward 5′-ACCTGCGCACAATGACACA-3′ (SEQ ID NO: 752), reverse 5′-[…]-3′ (SEQ ID NO: 753), probe 5′-FAM-[…]-TAMRA-3′ (SEQ ID NO: 754); (PPAR-γ): forward 5′-[…]-3′ (SEQ ID NO: 755), reverse 5′-[…]-3′ (SEQ ID NO: 756), probe 5′-FAM-[…]-TAMRA-3′ (SEQ ID NO: 757). The amount of total RNA in each sample is determined using a Ribogreen Assay (Molecular Probes, Eugene, Oreg.), and expression levels of the adipocyte differentiation hallmark genes were normalized to total RNA. Leptin protein and triglyceride levels as well as mRNA levels for each of the four adipocyte differentiation hallmark genes are expressed relative to control levels (control=treatment with ISIS-29848 (SEQ ID NO: 737)).
In some embodiments, differentiating adipocytes were treated with uniform 2′-MOE phosphorothioate oligomeric compounds according to the methods described above, and the expression of the four hallmark genes, HSL, aP2, Glut4, and PPARγ, as well as triglyceride (TG) accumulation were measured. […] Undifferentiated adipocytes were also compared as a negative control. […] The effects of TNF-α, also known to inhibit adipocyte differentiation, were also measured.

T47D cells = experiment: Cell cycle assay in T47D cells; conditions: 150 nM, 48 hours, relative to untreated control
Description: BJ cells were routinely cultured in MEM high glucose with 2 mM L-glutamine and Earle's BSS adjusted to contain 1.5 g/L sodium bicarbonate and supplemented with 10% fetal bovine serum, 0.1 mM non-essential amino acids and 1.0 mM sodium pyruvate (all media and supplements from Invitrogen Life Technologies, Carlsbad, Calif.). B16-F10 cells were routinely cultured in DMEM high glucose (Invitrogen Life Technologies, Carlsbad, Calif.) supplemented with 10% fetal bovine serum (Invitrogen Life Technologies, Carlsbad, Calif.). T47D cells were cultured in DMEM High glucose media (Invitrogen Life Technologies, Carlsbad, Calif.) supplemented with 10% fetal bovine serum. […] Cells were plated on collagen-coated 24-well plates (Falcon-Primaria #3047, BD Biosciences, Bedford, Mass.) at approximately 50,000 cells per well and allowed to attach to wells overnight.
(§1) In further studies, additional cell lines were treated with oligomeric compounds targeted against miRNAs to assess the effects of each oligomeric compound on cell cycling. BJ, B16, T47D, and HeLa cells were cultured and transfected as described above. […] T47Dp53 cells are T47D cells that have been transfected with and selected for maintenance of a plasmid that expresses a wildtype copy of the p53 gene (for example, pCMV-p53; Clontech, Palo Alto, Calif.), using standard laboratory procedures. BJ cells were treated with 200 nM of each oligomeric compound, and T47D, T47Dp53, HeLa, and B16 cells were treated with 150 nM of each oligomeric compound. The human foreskin fibroblast BJ cell line represents a non-cancer cell line, while HeLa, T47D, T47Dp53 cells and the mouse melanoma cell line B16-F10 represent cancerous cell lines. For comparison, oligomeric compounds ISIS 183891 (SEQ ID NO: 847) and ISIS 285717 ([…]; herein incorporated as SEQ ID NO: 857), both targeting the kinesin-like 1/Eg5 mRNA, involved in cell cycling, were used as positive controls. The random-mer ISIS 29848 was used as a negative control. Additionally, the oligomeric compounds ISIS Number 25690 ([…]; herein incorporated as SEQ ID NO: 858) and ISIS Number 25691 ([…]; herein incorporated as SEQ ID NO: 859), targeted to nucleotides 3051-3070 and 3085-3104, respectively, of the mRNA encoding the Drosha RNase III (GenBank Accession NM_013235.2, incorporated herein as SEQ ID NO: 860) were also tested. ISIS Number 25690 and ISIS Number 25691 are 5-10-52′-MOE gapmer compounds, 20 nucleotides in length, with phosphorothioate internucleoside linkages throughout the oligomeric compound. All cytidine residues are 5-methylcytidines. Transfections were performed using the methods described herein. Cells were prepared for flow cytometry 48-hours after oligonucleotide treatment. Results of these studies are shown in Table 35, where data are expressed as percentage of cells in each phase relative to the untreated control cells in that phase.

HeLa cells = experiment: Cell cycle assay in HeLa cells; conditions: HeLa cells; for % cells in cell cycle phase: G1 / % cells in cell cycle phase: G2/M / % cells in cell cycle phase: S / % cells in cell cycle phase: aneuploid / % cells in cell cycle phase: subG1: 48 hours after treatment, relative to untreated control (UTC=100)
T47Dp53 cells = experiment: Cell cycle assay in T47Dp53 cells; conditions: 150 nM, 48 hours, relative to untreated control
Description: as §1

A549 cells = experiment: Cell cycle assay in A549 cells; conditions: A549 cells, 24 hours, relative to the untreated control cells in that phase
Description: In accordance with the present invention, certain oligomeric compounds targeting miRNAs were selected for dose response studies. Using the cell cycle assay described above, the cell cycle profiles of HeLa or A549 cells treated with varying concentrations of oligomeric compounds of the present invention were assessed.
Concomittent decreases in the percentage of cells in G1-phase of the cell cycle and increases in the percentage of hypodiploid (subG1) cells were also observed.
In a further study, A549 cells were treated with 25-, 50-, 100- or 150 nM of the oligomeric compounds ISIS Numbers 338637 (SEQ ID NO: 464) targeted against mir-96, and ISIS 338769 (SEQ ID NO: 596) targeted against mir-130b, ISIS 338836 (SEQ ID NO: 663) targeted against mir-23a, and ISIS 340350 (SEQ ID NO: 855) targeted against mir-95 (Mourelatos). Cells treated with increasing concentrations of oligomeric compounds were compared to untreated cells, to assess the dose-responsiveness of the observed delay or arrest. The random-mer ISIS 29848 was used as a negative control. Cells were prepared for flow cytometry 24-hours after oligonucleotide treatment. Results of these dose response studies are shown in Table 34, where data are expressed as percentage of cells in each phase relative to the untreated control cells in that phase.

[2] = 150 nM oligomeric compound, 24 hours, relative to untreated control (UTC = 100)
[3] = 150 nM, 48 hours, relative to untreated control

## ACTCACCGACAGCGTTGAATGTT (chemistry not given here) [ISIS 327904, uniform 2′-MOE PS; targets mir-181a]
[1]; % of UTC (Table 55)
  five markers of adipocyte differentiation: reduce the expression levels of all five markers of adipocyte differentiation

## ATGACTACAAGTTTATGGCCA (chemistry not given here) [ISIS 328121, uniform 2′-MOE PS; targets hypothetical miRNA-161]
[1]
  5 markers of adipocyte differentiation: significant increases in all 5 markers of adipocyte differentiation
[1]; control ISIS 342673 (Tables 17, 18)
  five markers of adipocyte differentiation: increase in all five markers of adipocyte differentiation

## AACTACTTCCAGAGCAGGTGA (anti-miR; chemistry not fully specified) [ISIS 328136, uniform 2′-MOE PS; targets hypothetical miRNA-181]
[1]; control ISIS 342673
  expression of the other four hallmark genes (HSL, aP2, Glut4, PPARγ): reduction of expression of the other four hallmark genes

## ISIS 348117: SEQ ID NO: 1860, targeted to mir-321-1 (antisense GAACCCACAAUCCCUGGCUUA; all 2'-MOE, all phosphorothioate, methylation of C and T or U not given here)
[1]
  5 markers of adipocyte differentiation: significantly reduce the expression levels of 3 of the 5 markers of adipocyte differentiation

## 328687 (eG*e[5mC]*eT*eT*e[5mC]*d[5mC]*d[5mC]*dA*dG*d[5mC]*dG*dG*d[5mC]*d[5mC]*dT*eA*eT*eA*eG*eT; antisense) [compound 328687]
T47D cells
  % cells in cell cycle phase G1: 101%
  % cells in cell cycle phase G2/M: 115%
  % cells in cell cycle phase S: 92%
  % cells in cell cycle phase aneuploid: 169%
  % cells in cell cycle phase subG1: 142%
HeLa cells; [2]
  % cells aneuploid: 149%
  % cells in cell cycle phase G1: 80%
  % cells in cell cycle phase G2/M: 131%
  % cells in cell cycle phase S: 98%
  % cells in cell cycle phase subG1: 231%
HeLa cells; 150 nM oligomeric compound
  % cells in cell cycle phase: G1: 55%
  % cells in cell cycle phase: G2/M: 131%
  % cells in cell cycle phase: S: 174%
  % cells in cell cycle phase: aneuploid: 171%
  % cells in cell cycle phase: subG1: 1119%

## CCCAACAACATGAAACTACCTA (chemistry not given here) [ISIS 327909, uniform 2′-MOE PS; targets mir-196-2]
[1]; % of UTC (Table 55)
  five markers of adipocyte differentiation: increase in three of the five markers of adipocyte differentiation

## 338769 (antisense GCTTCCCAGCGGCCTATAGT; all 2'-MOE, all phosphorothioate, methylation of C not given here) [compound 338769]
T47Dp53 cells
  % cells in cell cycle phase G1: 103%
  % cells in cell cycle phase G2/M: 123%
  % cells in cell cycle phase S: 87%
  % cells in cell cycle phase aneuploid: 87%
  % cells in cell cycle phase subG1: 116%
A549 cells; 25 nM
  % cells in cell cycle phase: G1: 101%
  % cells in cell cycle phase: G2/M: 114%
  % cells in cell cycle phase: S: 94%
  % cells in cell cycle phase: aneuploid: 101%
  % cells in cell cycle phase: subG1: 62%
A549 cells; 50 nM
  % cells in cell cycle phase: G1: 114%
  % cells in cell cycle phase: G2/M: 122%
  % cells in cell cycle phase: S: 81%
  % cells in cell cycle phase: aneuploid: 132%
  % cells in cell cycle phase: subG1: 82%
A549 cells; 100 nM
  % cells in cell cycle phase: G1: 124%
  % cells in cell cycle phase: G2/M: 113%
  % cells in cell cycle phase: S: 75%
  % cells in cell cycle phase: aneuploid: 157%
  % cells in cell cycle phase: subG1: 130%
A549 cells; 150 nM
  % cells in cell cycle phase: G1: 117%
  % cells in cell cycle phase: G2/M: 145%
  % cells in cell cycle phase: S: 71%
  % cells in cell cycle phase: aneuploid: 184%
  % cells in cell cycle phase: subG1: 341%
HeLa cells; [2]
  % cells aneuploid: 133%
  % cells in cell cycle phase G1: 171%
  % cells in cell cycle phase G2/M: 103%
  % cells in cell cycle phase S: 61%
  % cells in cell cycle phase subG1: 188%
HeLa cells; 150 nM oligomeric compound
  % cells in cell cycle phase: G1: 76%
  % cells in cell cycle phase: G2/M: 149%
  % cells in cell cycle phase: S: 116%
  % cells in cell cycle phase: aneuploid: 194%
  % cells in cell cycle phase: subG1: 482%

## 25690 (antisense eA*eT*e[5mC]*e[5mC]*e[5mC]*dT*dT*dT*d[5mC]*dT*dT*d[5mC]*d[5mC]*dG*d[5mC]*eA*eT*eG*eT*eG) [compound 25690]
T47D cells
  % cells in cell cycle phase G1: 97%
  % cells in cell cycle phase G2/M: 113%
  % cells in cell cycle phase S: 80%
  % cells in cell cycle phase aneuploid: 140%
  % cells in cell cycle phase subG1: 97%
T47Dp53 cells
  % cells in cell cycle phase G1: 97%
  % cells in cell cycle phase G2/M: 114%
  % cells in cell cycle phase S: 108%
  % cells in cell cycle phase aneuploid: 144%
  % cells in cell cycle phase subG1: 193%
HeLa cells; [3]
  % cells in cell cycle phase G1: 119%
  % cells in cell cycle phase G2/M: 87%
  % cells in cell cycle phase S: 89%
  % cells in cell cycle phase aneuploid: 140%
  % cells in cell cycle phase subG1: 64%
